The text below walks through data of paper PMC11739509, “Transport and inhibition of the sphingosine-1-phosphate exporter SPNS2” (Nature Communications, 2025).

In assay [1] the target is T1, SPNS2 (Homo sapiens, UniProt Q8IVW8).
T1 sequence (Q8IVW8 1-549): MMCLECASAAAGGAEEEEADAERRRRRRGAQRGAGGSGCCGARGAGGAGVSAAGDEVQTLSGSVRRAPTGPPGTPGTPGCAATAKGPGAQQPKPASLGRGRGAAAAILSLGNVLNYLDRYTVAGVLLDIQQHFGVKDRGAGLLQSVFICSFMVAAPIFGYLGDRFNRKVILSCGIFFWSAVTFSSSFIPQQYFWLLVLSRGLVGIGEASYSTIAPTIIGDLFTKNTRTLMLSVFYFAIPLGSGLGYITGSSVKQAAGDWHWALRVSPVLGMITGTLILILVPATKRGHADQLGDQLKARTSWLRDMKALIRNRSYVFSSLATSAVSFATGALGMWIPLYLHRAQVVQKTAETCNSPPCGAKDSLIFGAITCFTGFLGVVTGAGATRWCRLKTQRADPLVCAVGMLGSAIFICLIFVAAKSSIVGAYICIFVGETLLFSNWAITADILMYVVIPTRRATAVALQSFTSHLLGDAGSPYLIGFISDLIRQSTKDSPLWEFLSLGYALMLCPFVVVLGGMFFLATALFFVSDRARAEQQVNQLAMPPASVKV
In words: S1PR3-coupled S1P export assay in CHO cells. In kind it is cell-based. On the set-up: untagged wild type SPNS2 overexpressed with SphK1 in CHO-K1 cells.

Assay [2] deals with T1, SPNS2. In words: S1PR3-coupled S1P export assay; R200S mutant inactive. In kind it is cell-based. The arrangement: untagged wild type SPNS2 overexpressed with SphK1 in CHO-K1 cells.
The target in assay [3] is T1, SPNS2. Put plainly: cryo-EM structure at […] Å (detergent modeled as dodecyl glucoside; mixture of DDM and S1P not excluded). The format is binding. The arrangement: full-length human SPNS2; residues 1-99, 287-296 and 352-358 not resolved; with nanobody NbD12.
In assay [4] the target is T2, Biotinylated SPNS2 (full-length, codon-optimized, C-terminal AVI and Flag tag) (Homo sapiens, UniProt Q8IVW8, biotin (AVI tag, BirA co-expressed)).
T2 construct: SPNS2, full-length codon-optimized, in the in-house baculovirus vector pD-INS3; The species is not repeated in the paragraph on this construct; also called Biotinylated SPNS2 protein; source: Sf9 cells co-infected with SPNS2 and BirA baculovirus, biotin in the medium; purified in DDM or LMNG (Anti-Flag M2 resin, SEC); not shown: AVI, C-terminal, kept
Put plainly: SPR; Biacore 8K; biotinylated SPNS2 immobilised on SA sensor chip (600 to 800 RU); nanobody series 0 to 1 or 10 uM injected; 20 mM HEPES pH 7.5, 150 mM NaCl, 0.026% DDM, 0.01% fatty acid free BSA; 25 °C; 1:1 interaction model. Conditions: both partners purified. On the technique in general: Surface plasmon resonance follows binding to a sensor surface in real time, without labels.

With `CCCCCCCCCCc1ccc2nc(NC[C@H]3CCNC3)oc2c1` [33p, 6-decyl-N-[[(3S)-pyrrolidin-3-yl]methyl]-1,3-benzoxazol-2-amine], the concentration for half-maximal inhibition (IC50) (commonly the point on the concentration scale where inhibition reaches its midpoint) against SPNS2 [1] was 1900 ± 320 nM.

In the case of `CCCCCCCCCCCCC/C=C/[C@@H](O)[C@@H](N)COP(=O)(O)O` [Sphingosine-1-phosphate], the “S1PR3-coupled S1P export assay; R200S mutant inactive” value at SPNS2 [2] was “Validating this assay, the SPNS2 mutation R200S shows no S1P transport activity”.

On to `CCCCCCCCCCCCO[C@@H]1O[C@H](CO)[C@@H](O[C@H]2O[C@H](CO)[C@@H](O)[C@H](O)[C@H]2O)[C@H](O)[C@H]1O` [n-dodecyl-β-D-maltopyranoside], for which, on SPNS2 [3], the “cryo-EM structure at 3.7 Å (detergent modeled as dodecyl glucoside); mixture of D” value is “the unknown density fits the acyl chain and first glucose of n-dodecyl-β-D-maltopyranoside”.

B1: Nanobody D12 (NbD12) (VHH)
VHH: QVQLVESGGGLVQAGGSLRLSCAASGRLLSWYDMAWFRQAPGKEREFVAAVTSTGAGTHYVDSVKGRFTISRVNAKNTMYLQMNSLKPEDTAVYYCAAANTRLTALSLRTTTGSWAYWGKGTPVTVSS
notes: Raised by immunising alpacas with SPNS2 and selected by phage display; Subcloned into pBXNP (Addgene 110098) modified to carry a 1x FLAG tag upstream of the 10x His tag; The FLAG tag is used for capture and detection in the co-IP and the immunofluorescence; source: E. coli MC1061 periplasm, purified
For the molecule B1, in assay [4], the dissociation constant (Kd) (as a rule, the concentration at which binding is half-saturated) turned out to be 7.75 nM.
